Measured values taken from patent US3974168A, “Tricycle substituted acetones” (Yoshitomi Pharmaceutical Industries, Ltd., priority 1973, dated 1976).

Tests used:
Ultraviolet Erythema = Ultraviolet Erythema Method (anti-inflammatory action); format: in vivo; settings: guinea pigs, 2 hours after irradiation, half dose 1 hour before and after
Experimental: ii. Ultraviolet Erythema Method
Using guinea pigs weighing 250-450 g, a rubber plate with 3 holes of 7 mm in diameter was fitted to the abdomen, hair of which had been removed in advance, and light was given by a mercury lamp (300 W) at the distance of 15 cm for 150 seconds. Two hours later the degree of erythema formation was marked according to the method of Winder et al. (Arch. Intern. Pharmacodyn., 116, 261 (1958)) and the efficacy rate was calculated, based on the criterion that 1.5 or less of total marks be effective. Half amount of the test solution was orally given 1 hour before and after the irradiation.

[1] = system: stretch symptoms induced by o-phenyl-p-benzoquinone; experiment: Phenylquinone Method (analgesic action); format: in vivo, dd-strain male mice; settings: mice, stretch symptoms over 30 minutes
Experimental: Analgesic Action (Phenylquinone Method)
According to the method of Hendershot et al. (J. Pharmacol. Exptl. Therap., 125, 237 (1957)), to one group of six dd-strain male mice each weighing about 20 g a test solution containing a test compound was orally administered and 1 hour later 0.2 ml/20 g of body weight of 0.02% o-phenyl-p-benzoquinone solution was intraperitoneally injected. The frequency of stretch symptoms thus induced was measured for 30 minutes, and compared with that of a control group, and the inhibition percentage (effect) was calculated. Results: Carrageenin Edema Method Compound Dose (mg/kg) p.o. % inhibition ______________________________________ A 5 50 25 68 B 10 36 25 61 C 25 32 50 63 ______________________________________

Carrageenin Edema = Carrageenin Edema Method (anti-inflammatory action); format: in vivo, Donryu-strain male rats; settings: carrageenin paw edema, rats, 2 hours after phlogogen
Experimental: i. Carrageenin Edema Method
According to the method of Winter et al. (Proc. Soc. Exptl. Biol. Med., 111, 544 (1962)), to one group of five Donryu-strain male rats each weighing about 130 g a test solution containing a test compound was administered orally. One hour later 0.05 ml of 1% carrageenin solution as a phlogogenic substance was subcutaneously injected to the paw of the hind leg. And 2 hours after the administration of phlogogen the bulk of the paw was measured in order to obtain the increment percentage over that before administration. The ratio of bulk increment between a control group and a test group was calculated as inhibition percentage.

CC(=O)C(C)c1ccc2c(c1)Cc1cccnc1O2 (stereo not drawn) [A, 3-(5h-[1]benzopyrano[2,3-b]pyridin-7-yl)-2-butanone]
Animals with score of 1.5 or less / Total animals (Ultraviolet Erythema; 1 mg/kg p.o.): 3/10 | Animals with score of 1.5 or less / Total animals (Ultraviolet Erythema; 2.5 mg/kg p.o.): 6/10 | % inhibition ([1]; 5 mg/kg p.o.): 48.7% | % inhibition ([1]; 10 mg/kg p.o.): 73.5% | % inhibition (Carrageenin Edema; 5 mg/kg p.o.): 50% | % inhibition (Carrageenin Edema; 25 mg/kg p.o.): 68%

CC(=O)C(C)c1ccc2c(c1)Cc1ccc(C)nc1O2 (stereo not drawn) [B, 3-(2-methyl-5H-[1]benzopyrano[2,3-b]pyridin-7-yl)-2-butanone]
Animals with score of 1.5 or less / Total animals (Ultraviolet Erythema; 100 mg/kg p.o.): 2/5 | Animals with score of 1.5 or less / Total animals (Ultraviolet Erythema; 250 mg/kg p.o.): 4/5 | % inhibition ([1]; 0.5 mg/kg p.o.): 24.0% | % inhibition ([1]; 1 mg/kg p.o.): 63.4% | % inhibition (Carrageenin Edema; 10 mg/kg p.o.): 36% | % inhibition (Carrageenin Edema; 25 mg/kg p.o.): 61%

CCC(=O)C(C)c1ccc2c(c1)Cc1cccnc1O2 (stereo not drawn) [C, 2-(5h-[1]benzopyrano[2,3-b]pyridin-7-yl)-3-pentanone]
Animals with score of 1.5 or less / Total animals (Ultraviolet Erythema; 1 mg/kg p.o.): 2/5 | Animals with score of 1.5 or less / Total animals (Ultraviolet Erythema; 5 mg/kg p.o.): 3/5 | % inhibition ([1]; 25 mg/kg p.o.): 41.6% | % inhibition ([1]; 50 mg/kg p.o.): 75.2% | % inhibition (Carrageenin Edema; 25 mg/kg p.o.): 32% | % inhibition (Carrageenin Edema; 50 mg/kg p.o.): 63%
